Experimental data as given in ChEMBL document CHEMBL1148772, “Inhibition of Mycobacterium tuberculosis, Mycobacterium bovis, and Mycobacterium avium by novel dideoxy nucleosides” (J Med Chem, 2007).
Values after ≈ are worked out from the molar mass of the structure shown.

Assays:
[1] = test system: Mycobacterium tuberculosis; test: Antimycobacterial activity against Mycobacterium tuberculosis H37Ra at 10 uM by microplate alamar blue assay; type: functional
Mycobacterium avium [2] = test: Antimycobacterial activity against Mycobacterium avium ATCC 25291 at 100 uM by microplate alamar blue assay; type: functional
Bacillus subtilis = test: Antibacterial activity against Bacillus subtilis ATCC 6633; type: functional
Mycobacterium avium [3] = test: Antimycobacterial activity against Mycobacterium avium ATCC 25291 at 50 uM by microplate alamar blue assay; type: functional
Mycobacterium avium [4] = test: Antimycobacterial activity against Mycobacterium avium ATCC 25291 at 10 uM by microplate alamar blue assay; type: functional
[5] = Cytotoxicity against human foreskin fibroblast cells by MTT assay; type: cell-based
[6] = test system: Mycobacterium tuberculosis; test: Antimycobacterial activity against Mycobacterium tuberculosis H37Ra by microplate alamar blue assay; type: functional
[7] = test system: Mycobacterium tuberculosis; test: Antimycobacterial activity against Mycobacterium tuberculosis H37Ra at 1 uM by microplate alamar blue assay; type: functional
[8] = Cytotoxicity against Vero cells by MTT assay; type: cell-based; settings: African green monkey
[9] = test system: Mycobacterium tuberculosis; test: Antimycobacterial activity against Mycobacterium tuberculosis H37Ra at 50 uM by microplate alamar blue assay; type: functional
[10] = test system: Mycobacterium tuberculosis; test: Antimycobacterial activity against Mycobacterium tuberculosis H37Ra at 100 uM by microplate alamar blue assay; type: functional
Mycobacterium avium [11] = test: Antimycobacterial activity against Mycobacterium avium ATCC 25291 by microplate alamar blue assay; type: functional
Streptococcus pneumoniae = test: Antibacterial activity against Streptococcus pneumoniae ATCC 49619; type: functional
Streptococcus pyogenes = test: Antibacterial activity against Streptococcus pyogenes ATCC 19615; type: functional
Mycobacterium avium [12] = test: Antimycobacterial activity against Mycobacterium avium ATCC 25291 at 2 uM by microplate alamar blue assay; type: functional

Row | SMILES | inhibition at 10 µM [1] [%] | inhibition at 100 µM (Mycobacterium avium [2]) [%] | MIC90 [6] [µg/mL] | inhibition at 50 µM [9] [%] | inhibition at 100 µM [10] [%] | further results
1 | Nc1nc(=O)n([C@H]2CC[C@@H](CO)O2)cc1Br | 50 | 0 | – | – | – | –
2 | CCCCCCCCCC#Cc1cn([C@H]2CC[C@@H](CO)O2)c(=O)[nH]c1=O | 100 | 100 | 1 (≈ 2.76 µM) | 100 | 100 | MIC (Bacillus subtilis): 100 µg/mL (≈ 276 µM); inhibition at 50 µM (Mycobacterium avium [3]): 100%; inhibition at 10 µM (Mycobacterium avium [4]): 50%; CC50 [5]: > 100 µg/mL; inhibition at 1 µM [7]: 80%; CC50 [8]: > 100 µg/mL; MIC90 (Mycobacterium avium [11]): 10 µg/mL (≈ 27.6 µM)
3 | CCCCCCCCCCCC#Cc1cn([C@H]2CC[C@@H](CO)O2)c(=O)[nH]c1=O | 50 | 100 | 10 (≈ 25.6 µM) | 100 | 100 | inhibition at 50 µM (Mycobacterium avium [3]): 100%; inhibition at 10 µM (Mycobacterium avium [4]): 80%; CC50 [5]: > 100 µg/mL; inhibition at 1 µM [7]: 50%; CC50 [8]: > 100 µg/mL; MIC90 (Mycobacterium avium [11]): 10 µg/mL (≈ 25.6 µM)
4 | O=c1[nH]c(=O)n([C@H]2CC[C@@H](CO)O2)cc1C#Cc1ccccc1 | – | 25 | – | 25 | 25 | inhibition at 50 µM (Mycobacterium avium [3]): 25%; inhibition at 10 µM (Mycobacterium avium [4]): 25%
5 | O=c1[nH]c(=O)n([C@H]2CC[C@@H](CO)O2)cc1Br | – | 0 | – | – | 0 | –
6 | CCCC#Cc1cn([C@H]2CC[C@@H](CO)O2)c(=O)[nH]c1=O | – | 0 | – | – | 50 | –
7 | Nc1ncnc2c1ncn2[C@H]1CC[C@@H](CO)O1 | – | 0 | – | – | 0 | –
8 | CC(=O)OC[C@@H]1CC[C@H](n2ccc(=O)[nH]c2=O)O1 | – | 0 | – | – | 0 | –
9 | O=c1[nH]c(=O)n([C@H]2CC[C@@H](CO)O2)cc1Cl | – | 0 | – | – | 0 | –
10 | CCCc1ccc(C#Cc2cn([C@H]3C[C@H](F)[C@@H](CO)O3)c(=O)[nH]c2=O)cc1 | 50 | 25 | 50 (≈ 134 µM) | 100 | 100 | –
11 | CCCCCCCCCCCCC#Cc1cn(C2CC(F)C(CO)O2)c(=O)[nH]c1=O (stereo not drawn) | 100 | 90 | 1 (≈ 2.37 µM) | 100 | 100 | CC50 [5]: > 100 µg/mL; inhibition at 1 µM [7]: 80%; CC50 [8]: > 100 µg/mL; MIC90 (Mycobacterium avium [11]): 100 µg/mL (≈ 237 µM)
12 | CCSc1nc(N)nc2c1ncn2[C@H]1CC[C@@H](CO)O1 | 35 | 25 | 10 (≈ 33.9 µM) | 100 | 100 | inhibition at 50 µM (Mycobacterium avium [3]): 25%
13 | CC(=O)OC[C@@H]1CC[C@H](n2cc(Cl)c(=S)[nH]c2=O)O1 | – | 0 | 50 (≈ 164 µM) | 60 | 100 | –
14 | CCCCCC#Cc1cn([C@H]2C[C@H](F)[C@@H](CO)O2)c(=O)[nH]c1=O | – | 0 | – | – | 50 | –
15 | CCCCCCCCC#Cc1cn([C@H]2C[C@H](F)[C@@H](CO)O2)c(=O)[nH]c1=O | 25 | 50 | 10 (≈ 27.3 µM) | 100 | 100 | CC50 [5]: > 100 µg/mL; CC50 [8]: > 100 µg/mL
16 | CCCCCCCCCCC#Cc1cn([C@H]2C[C@H](F)[C@@H](CO)O2)c(=O)[nH]c1=O | 50 | 90 | 10 (≈ 25.3 µM) | 100 | 100 | inhibition at 50 µM (Mycobacterium avium [3]): 40%; CC50 [5]: > 100 µg/mL; CC50 [8]: > 100 µg/mL; MIC90 (Mycobacterium avium [11]): 100 µg/mL (≈ 253 µM)
17 | N#Cc1cn(C2CCC(CO)O2)c2ncnc(N)c12 (stereo not drawn) | – | 0 | – | 40 | 50 | –

Row | SMILES | inhibition at 10 µM [1] [%] | inhibition at 100 µM (Mycobacterium avium [2]) [%] | MIC90 [6] [µg/mL] | inhibition at 50 µM [9] [%] | inhibition at 100 µM [10] [%] | further results
18 | CCCCCCCCCCCC#Cc1cn([C@H]2C[C@H](F)[C@@H](CO)O2)c(=O)[nH]c1=O | 60 | 25 | 10 (≈ 24.5 µM) | 100 | 100 | CC50 [5]: > 100 µg/mL; CC50 [8]: > 100 µg/mL
19 | CCCCCCCCC#Cc1cn([C@H]2CC[C@@H](CO)O2)c(=O)[nH]c1=O | 100 | 90 | 1 (≈ 2.87 µM) | 100 | 100 | MIC (Bacillus subtilis): 100 µg/mL (≈ 287 µM); inhibition at 50 µM (Mycobacterium avium [3]): 25%; inhibition at 10 µM (Mycobacterium avium [4]): 25%; MIC (Streptococcus pneumoniae): 100 µg/mL (≈ 287 µM); CC50 [5]: > 100 µg/mL; MIC (Streptococcus pyogenes): 100 µg/mL (≈ 287 µM); inhibition at 1 µM [7]: 50%; CC50 [8]: > 100 µg/mL; MIC90 (Mycobacterium avium [11]): 100 µg/mL (≈ 287 µM)
20 | Nc1nc(=O)n([C@H]2CC[C@@H](CO)O2)cc1I | – | 0 | – | – | 0 | –
21 | CC(=O)OC[C@@H]1CC[C@H](n2cc(Cl)c(=O)[nH]c2=O)O1 | – | 0 | – | – | 0 | –
22 | Cc1cn([C@H]2CC[C@@H](CO)O2)c(=O)nc1N | 50 | 0 | – | 50 | 50 | –
23 | NC(=O)c1cn([C@H]2CC[C@@H](CO)O2)c2ncnc(N)c12 | – | 0 | – | – | 0 | –
24 | Nc1nc(F)c2ccn([C@H]3CC[C@@H](CO)O3)c2n1 | 25 | 100 | – | 40 | 50 | inhibition at 50 µM (Mycobacterium avium [3]): 100%; inhibition at 10 µM (Mycobacterium avium [4]): 35%; MIC90 (Mycobacterium avium [11]): 10 µg/mL (≈ 39.6 µM)
25 | O=c1[nH]c(=S)c(Cl)cn1[C@H]1CC[C@@H](CO)O1 | – | 0 | 50 (≈ 190 µM) | 50 | 100 | –
26 | CCCCCCCCCCCCC#Cc1cn([C@H]2CC[C@@H](CO)O2)c(=O)[nH]c1=O | 50 | 100 | 10 (≈ 24.7 µM) | 100 | 100 | inhibition at 50 µM (Mycobacterium avium [3]): 50%; CC50 [5]: > 100 µg/mL; inhibition at 1 µM [7]: 25%; CC50 [8]: > 100 µg/mL; MIC90 (Mycobacterium avium [11]): 50 µg/mL (≈ 124 µM)
27 | Nc1nc(N)c2ncn([C@H]3CC[C@@H](CO)O3)c2n1 | – | 0 | – | – | 25 | –
28 | Nc1nc(O)c2ncn([C@H]3CC[C@@H](CO)O3)c2n1 | – | 0 | – | – | 0 | –
29 | CC[C@H]1OC(=O)[C@H](C)[C@@H](O[C@H]2C[C@@](C)(OC)[C@@H](O)[C@H](C)O2)[C@H](C)[C@@H](O[C@@H]2O[C@H](C)C[C@H](N(C)C)[C@H]2O)[C@](C)(OC)C[C@@H](C)C(=O)[C@H](C)[C@@H](O)[C@]1(C)O [CLARITHROMYCIN] | – | – | – | – | – | inhibition at 2 µM (Mycobacterium avium [12]): 95%; MIC90 (Mycobacterium avium [11]): 2 µg/mL (≈ 2.67 µM)
30 | Nc1ccn([C@@H]2CS[C@H](CO)O2)c(=O)n1 [LAMIVUDINE] | – | 0 | – | – | 0 | –
31 | COc1nc(N)nc2c1ncn2[C@H]1CC[C@@H](CO)O1 [METACAVIR] | – | 20 | – | – | 0 | inhibition at 50 µM (Mycobacterium avium [3]): 20%
32 | CO[C@H]1/C=C/O[C@@]2(C)Oc3c(C)c(O)c4c(O)c(c(/C=N/N5CCN(C)CC5)c(O)c4c3C2=O)NC(=O)/C(C)=C\C=C\[C@H](C)[C@H](O)[C@@H](C)[C@@H](O)[C@@H](C)[C@H](OC(C)=O)[C@@H]1C [RIFAMPIN] | – | – | 0.5 (≈ 0.608 µM) | – | – | inhibition at 2 µM (Mycobacterium avium [12]): 90%; MIC90 (Mycobacterium avium [11]): 2 µg/mL (≈ 2.43 µM)
33 | Nc1ccn([C@H]2CC[C@@H](CO)O2)c(=O)n1 [ZALCITABINE] | – | 0 | – | – | 0 | –
